ChEMBL document CHEMBL1201862, “PubChem BioAssay data set” (2004)
Active and inactive are the calls of the source.

Assays:
[1] = luciferase reporter signal suppression in cells – H4 neuroglioma cells, luminescence, dose response (AID 1990); assay type: functional, cell-based
[2] = Luminescence Cell-Based Dose Response HTS to Identify Inhibitors of 5'UTR Stem-Loop Driven Prion Protein mRNA Translation in H4 Neuroglioblastoma Cells. [Related pubchem assays: 1827 (Project Summary), 1813 (Primary HTS)]; assay type: functional
[3] = alpha-synuclein stem-loop luciferase translation blockers – H4 neuroglioma cells, luminescence, confirmation (AID 1988); assay type: functional, cell-based
[4] = molecular target: T1, Replicative DNA helicase DnaB (Mycobacterium tuberculosis, UniProt P9WMR3); assay: DnaB intein splicing inhibitors, dose response, biochemical, cell-free fluorescence (AID 449749); assay type: functional
T1 sequence (P9WMR3 whole entry): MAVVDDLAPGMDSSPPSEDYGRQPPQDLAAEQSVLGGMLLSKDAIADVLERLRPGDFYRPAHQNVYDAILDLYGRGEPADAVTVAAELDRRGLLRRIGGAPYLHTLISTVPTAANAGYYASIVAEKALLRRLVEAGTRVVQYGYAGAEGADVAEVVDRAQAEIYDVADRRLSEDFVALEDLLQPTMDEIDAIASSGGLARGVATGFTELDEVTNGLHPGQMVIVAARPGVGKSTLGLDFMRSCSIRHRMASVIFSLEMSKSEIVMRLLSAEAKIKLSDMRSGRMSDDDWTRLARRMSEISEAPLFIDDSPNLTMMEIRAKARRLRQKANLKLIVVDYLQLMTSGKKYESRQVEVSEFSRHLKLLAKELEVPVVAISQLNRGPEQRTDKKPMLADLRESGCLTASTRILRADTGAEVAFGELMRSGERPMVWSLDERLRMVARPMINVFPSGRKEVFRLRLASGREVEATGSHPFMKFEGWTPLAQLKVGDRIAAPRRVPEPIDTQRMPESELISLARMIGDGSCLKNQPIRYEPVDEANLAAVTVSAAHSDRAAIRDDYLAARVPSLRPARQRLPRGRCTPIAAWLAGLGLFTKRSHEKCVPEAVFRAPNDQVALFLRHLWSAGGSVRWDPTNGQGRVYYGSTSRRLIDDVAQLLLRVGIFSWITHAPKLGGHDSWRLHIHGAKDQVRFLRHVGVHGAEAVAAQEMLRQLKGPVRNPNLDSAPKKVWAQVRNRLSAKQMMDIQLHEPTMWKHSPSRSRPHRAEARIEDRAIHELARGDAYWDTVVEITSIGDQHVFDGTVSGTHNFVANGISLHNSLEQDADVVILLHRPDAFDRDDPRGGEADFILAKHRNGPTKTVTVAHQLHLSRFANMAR

Protein RecA = molecular target: T2, Protein RecA (Mycobacterium tuberculosis, UniProt P9WHJ3); assay: Fluorescence Cell-Free Homogeneous Dose Retest to Identify Inhibitors of RecA-Intein Splicing Activity. [Related pubchem assays (depositor defined):AID2097, AID2223, AID489010, AID492950]; assay type: functional
T2 sequence (P9WHJ3 whole entry): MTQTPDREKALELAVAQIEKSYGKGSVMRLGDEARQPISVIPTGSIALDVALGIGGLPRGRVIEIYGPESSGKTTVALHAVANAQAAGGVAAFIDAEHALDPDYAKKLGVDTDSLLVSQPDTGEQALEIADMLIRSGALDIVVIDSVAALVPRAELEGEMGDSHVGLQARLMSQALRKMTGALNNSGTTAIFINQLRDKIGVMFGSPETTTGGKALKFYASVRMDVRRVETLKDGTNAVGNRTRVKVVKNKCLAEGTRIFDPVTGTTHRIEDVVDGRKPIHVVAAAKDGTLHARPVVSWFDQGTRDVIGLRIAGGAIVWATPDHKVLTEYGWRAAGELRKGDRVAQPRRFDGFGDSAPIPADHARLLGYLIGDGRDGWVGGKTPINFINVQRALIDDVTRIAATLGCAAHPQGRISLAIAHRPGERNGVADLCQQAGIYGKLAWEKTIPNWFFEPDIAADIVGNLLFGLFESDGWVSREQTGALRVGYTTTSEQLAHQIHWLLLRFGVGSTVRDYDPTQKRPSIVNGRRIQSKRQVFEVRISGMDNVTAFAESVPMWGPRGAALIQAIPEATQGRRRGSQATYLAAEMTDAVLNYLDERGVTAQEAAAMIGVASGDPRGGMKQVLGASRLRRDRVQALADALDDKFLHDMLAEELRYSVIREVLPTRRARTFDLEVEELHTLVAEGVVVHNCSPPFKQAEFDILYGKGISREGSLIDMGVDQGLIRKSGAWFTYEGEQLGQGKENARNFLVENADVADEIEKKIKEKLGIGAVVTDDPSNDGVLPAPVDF

H9c2 = assay: cells; assay type: functional, cell-based; details: Rattus norvegicus, H9c2, Myocardium;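 further: confirmatory concentration-response retest of ultra-high-throughput screening hits for modulation of myocardial damage; cell death induced by hydrogen peroxide oxidative stress; compound pretreatment for 60 min then peroxide exposure for 2 h; potency is for protecting the cells against peroxide damage rather than for killing them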
[5] = molecular target: T3, Ubiquitin-conjugating enzyme E2 N (Homo sapiens, UniProt P61088); assay type: functional;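 further: Dose-response confirmation in a TR-FRET assay detecting UBC13-driven polyubiquitin chain formation, inhibition measured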
T3 sequence (P61088 whole entry): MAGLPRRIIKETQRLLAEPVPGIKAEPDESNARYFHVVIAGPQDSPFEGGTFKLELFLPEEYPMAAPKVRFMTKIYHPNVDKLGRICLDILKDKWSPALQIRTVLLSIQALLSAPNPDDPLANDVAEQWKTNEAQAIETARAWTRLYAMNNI

[6] = molecular target: T4, Corticotropin-releasing factor receptor 2/Corticotropin-releasing factor-binding protein (Homo sapiens, UniProt P24387+Q13324); assay: Dose Response confirmation of uHTS hits for small molecule antagonists of the CRF-binding protein and CRF-R2 receptor complex.; assay type: functional; details: read-out: IC50_Mean
T4 sequence (Q13324 whole entry): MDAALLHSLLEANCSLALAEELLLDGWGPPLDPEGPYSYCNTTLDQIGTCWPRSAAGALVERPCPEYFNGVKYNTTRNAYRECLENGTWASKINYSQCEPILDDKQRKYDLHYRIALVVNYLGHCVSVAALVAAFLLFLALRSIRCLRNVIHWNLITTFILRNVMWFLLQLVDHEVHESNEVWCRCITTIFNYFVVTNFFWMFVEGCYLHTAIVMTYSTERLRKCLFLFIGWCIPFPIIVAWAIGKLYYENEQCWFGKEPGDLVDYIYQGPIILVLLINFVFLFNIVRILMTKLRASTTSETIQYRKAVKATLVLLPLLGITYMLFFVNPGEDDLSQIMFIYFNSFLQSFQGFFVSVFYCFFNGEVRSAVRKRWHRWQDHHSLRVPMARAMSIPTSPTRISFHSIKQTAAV
T4 sequence (P24387 whole entry): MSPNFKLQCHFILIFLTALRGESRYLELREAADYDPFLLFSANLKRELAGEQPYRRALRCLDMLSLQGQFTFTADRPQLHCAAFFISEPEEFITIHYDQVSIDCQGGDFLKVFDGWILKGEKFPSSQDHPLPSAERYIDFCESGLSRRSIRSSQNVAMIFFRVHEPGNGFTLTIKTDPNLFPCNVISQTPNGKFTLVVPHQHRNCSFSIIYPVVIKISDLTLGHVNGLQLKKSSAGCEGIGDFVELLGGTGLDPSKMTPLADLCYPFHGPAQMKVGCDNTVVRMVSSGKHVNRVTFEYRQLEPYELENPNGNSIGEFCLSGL

[7] = molecular target: T4, Corticotropin-releasing factor receptor 2/Corticotropin-releasing factor-binding protein; assay: activators of CRF receptor 2 with binding protein – uHTS hits, confirmation (AID 602473); assay type: functional; details: read-out: EC50_Mean
Cytochrome P450 2C9 = Cytochrome P450 2C9 (Homo sapiens, UniProt P11712)
Sequence of Cytochrome P450 2C9 (P11712 whole entry): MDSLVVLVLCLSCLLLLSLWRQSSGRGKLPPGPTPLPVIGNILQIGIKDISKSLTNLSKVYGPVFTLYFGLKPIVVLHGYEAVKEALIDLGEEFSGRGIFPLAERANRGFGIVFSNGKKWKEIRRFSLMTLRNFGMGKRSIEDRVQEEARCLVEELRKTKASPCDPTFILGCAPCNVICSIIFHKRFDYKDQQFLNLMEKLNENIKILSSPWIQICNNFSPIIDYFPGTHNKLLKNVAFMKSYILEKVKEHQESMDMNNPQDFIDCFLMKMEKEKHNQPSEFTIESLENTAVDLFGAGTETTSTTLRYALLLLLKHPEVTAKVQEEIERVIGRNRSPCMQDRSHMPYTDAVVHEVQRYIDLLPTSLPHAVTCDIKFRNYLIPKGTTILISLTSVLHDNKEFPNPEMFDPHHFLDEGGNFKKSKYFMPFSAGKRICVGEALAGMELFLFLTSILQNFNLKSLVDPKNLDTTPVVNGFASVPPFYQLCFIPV

Paired box protein Pax-8 = Paired box protein Pax-8 (Homo sapiens, UniProt Q06710); assay: PAX8 transcriptional activity inhibition in RMG-I – RMG-I cells, luciferase, cherry-pick, dose response (AID 687027); assay type: functional, cell-based;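 further: luciferase reporter driven by Pax8 target thyroperoxidase promoter measured by SteadyGlo luminescence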
Sequence of Paired box protein Pax-8 (Q06710 whole entry): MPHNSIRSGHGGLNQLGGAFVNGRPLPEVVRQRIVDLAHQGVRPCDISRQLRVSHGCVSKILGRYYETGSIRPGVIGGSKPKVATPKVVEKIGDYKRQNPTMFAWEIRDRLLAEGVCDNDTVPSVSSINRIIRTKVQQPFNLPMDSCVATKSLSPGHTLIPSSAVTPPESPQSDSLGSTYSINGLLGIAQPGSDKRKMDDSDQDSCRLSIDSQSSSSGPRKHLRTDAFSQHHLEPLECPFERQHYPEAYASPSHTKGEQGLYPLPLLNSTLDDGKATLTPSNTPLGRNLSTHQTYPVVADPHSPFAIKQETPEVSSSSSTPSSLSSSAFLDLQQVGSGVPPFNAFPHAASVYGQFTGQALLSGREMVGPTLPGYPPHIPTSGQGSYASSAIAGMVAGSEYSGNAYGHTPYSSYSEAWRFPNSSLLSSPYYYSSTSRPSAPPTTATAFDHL

[8] = viability of uninfected HEp-2 cells – cell-based, HTS, cytotoxicity control for RSV inhibitor project, dose response (AID 2410); assay type: functional; details: human respiratory syncytial virus

Cn1c(C(=O)NCCOc2ccccc2Cl)cc(=O)n(C)c1=O
EC50 [1]: > 120 µM (not active) | EC50 [2]: > 120 µM (not active) | EC50 [3]: > 120 µM (not active)

COc1ccccc1C1C(C#N)=C(N)Oc2c1c(-c1ccccc1)nn2-c1ccccc1 (stereo not drawn)
AC50 [4]: 9.85 µM (active) | EC50 (Protein RecA): 4.49 µM (active)

CCCN(CC(=O)Nc1ccccc1C)C(=O)Cc1nnc(O)c2ccccc12
IC50 (H9c2): > 79 µM (inactive)

Cc1ccc(/C=C2\SC(N3CCN(C(c4ccccc4)c4ccccc4)CC3)=NC2=O)o1
AC50 [4]: > 380 µM (inactive) | EC50 (Protein RecA): 49.1 µM (active)

COC(=O)Cc1c(C)[nH]n(-c2cc(Cl)cc(Cl)c2)c1=O
AC50 [4]: 11 µM (active) | EC50 (Protein RecA): 16.9 µM (active)

Cc1c(Br)c(C(=O)NNC(=O)c2ccc(C(C)(C)C)cc2)nn1C
IC50 [5]: > 20 µM (inactive)

Cn1c(=O)cc(OCCCC(=O)NCCN2CCN(c3ccccc3F)CC2)c2ccccc21
IC50 [5]: > 20 µM (inactive) | IC50 [6]: > 47.1 µM (inactive) | EC50 [7]: > 53 µM (inactive)

Cc1ccc2nc(O)c(N=C(N)S)nc2c1
IC50 [5]: > 20 µM (inactive) | AC50 (Cytochrome P450 2C9): 10 µM (inconclusive)

CCN(CC)S(=O)(=O)c1ccc(N2CCOCC2)c(NC(=O)c2cc(-c3ccccn3)nc3ccccc23)c1
IC50 (H9c2): > 79 µM (inactive)

Fc1ccc(Nc2nc(Oc3ccccc3F)nc(N3CCCC3)n2)cc1
AC50 [4]: 3.2 µM (active) | EC50 (Protein RecA): 0.946 µM (active)

Cn1nnnc1Sc1ncnc2scc(-c3ccccc3Cl)c12
AC50 (Paired box protein Pax-8): 2.42 µM (active)

CCOCCn1ccc2c(OCC(=O)Nc3cc(OC)ccc3OC)cccc2c1=O
IC50 (H9c2): > 79 µM (inactive)

COc1cccc(/C=C2/NC(=O)NC2=O)c1OCC(=O)Nc1ccccc1
EC50 [1]: > 120 µM (not active) | EC50 [2]: > 120 µM (not active) | EC50 [3]: > 120 µM (not active)

Cc1ccc(OCCCC(=O)Nc2ccc(S(=O)(=O)N3CCOCC3)cc2)cc1
IC50 [5]: > 20 µM (inactive)

COc1ccc(C(=O)COc2ccccc2C(N)=O)cc1
IC50 (H9c2): > 79 µM (inactive)

COc1ccc(OC)c(C2C(C#N)=C(N)Oc3c2c(C)nn3-c2ccc(C)cc2)c1 (stereo not drawn)
AC50 [4]: > 380 µM (inactive) | EC50 (Protein RecA): 4.91 µM (active)

c1ccc2c(CCN3CCNC[C@H]3Cc3cccc4ccccc34)cccc2c1
IC50 [5]: > 20 µM (inactive)

Cc1c(O)c(CN2CCCCC2)cc2c1oc(=O)c1ccccc12
IC50 (H9c2): 6.18 µM (active) | IC50 [6]: > 47.1 µM (inactive) | EC50 [7]: > 53 µM (inactive)

COC(=O)c1[nH]c2ccc(C)cc2c1NC(=O)C1=COCCO1
EC50 [1]: > 120 µM (not active) | EC50 [2]: > 120 µM (not active) | EC50 [3]: > 120 µM (not active)

COC(=O)c1ccc(Cn2c(C)c(C(=O)NCc3cccs3)sc2=O)o1
IC50 (H9c2): 12.1 µM (active)

COc1ccc(/C=N/NC(=O)c2cc(-c3ccc4c(c3)OCO4)[nH]n2)cc1OC
IC50 (H9c2): > 79 µM (inactive)

COc1ccc(OC)c(Nc2nc(N)c([N+](=O)[O-])c(N3CCOCC3)n2)c1
IC50 (H9c2): 17.7 µM (active)

CC[C@@H](C)[C@@H]1CN([C@@H](C)CN2CCC[C@H]2CN2C(N)=NC[C@H]2CC(C)C)C(=N)N1CCc1ccc(Cl)c(Cl)c1
IC50 [5]: > 20 µM (inactive)

C[C@@H]1CN([C@@H](C)CO)C(=O)c2cc(NC(=O)Nc3ccccc3)ccc2O[C@H]1CN(C)C(=O)Nc1cccc2ccccc12
IC50 (H9c2): 13.9 µM (active)

Cc1ccc2nc(-c3ccc(NC(=O)CCS(=O)(=O)c4ccccc4)cc3)sc2c1
CC50 [8]: 37.3 µM (active) | EC50 [2]: 6.83 µM (active) | EC50 [3]: 6.26 µM (active)

CC(C)(C)OC(=O)N1CCC[C@H]1c1nnc(SCC(=O)Nc2ccc(Br)cc2)o1
IC50 (H9c2): > 79 µM (inactive)

CN(C)C(CNC(=O)c1coc2ccccc2c1=O)c1ccccc1 (stereo not drawn)
IC50 [5]: > 20 µM (inactive)

NS(=O)(=O)c1ccc(CCNC(=O)c2ccc([N+](=O)[O-])cc2[N+](=O)[O-])cc1
EC50 [1]: > 120 µM (not active) | EC50 [2]: > 120 µM (not active) | EC50 [3]: > 120 µM (not active)

COc1ccccc1CN1CCSCC1
AC50 [4]: 13.2 µM (active) | EC50 (Protein RecA): 5.08 µM (active)

O=C1NCCCC2c3c(cc(Br)c(O)c3Br)OC12N1CCCCC1 (stereo not drawn)
AC50 [4]: 32.1 µM (active) | EC50 (Protein RecA): 5.46 µM (active)

NC1=NC[C@H](Cc2ccccc2)N1CCc1cc(C(F)(F)F)cc(C(F)(F)F)c1
IC50 [5]: > 20 µM (inactive)
